Data published in patent publication US9708359B2, “Pyrrolopyrimidine nucleosides and analogs thereof” (Chimerix, Inc., priority 2015, dated 2017).
“And” between values parts separate entries of the source, which are not always exact repeats. Identical values can stand only once. Like-named read-outs stand apart in the source and are kept apart here. Blank lines part the entries; values can stand above or below the molecule they belong to.

What was measured:
[1] = Cytotoxicity (CC50) in RAW cells; conditions: mouse
mouse norovirus = assay: Mouse Norovirus (MNV) assay in RAW cells
human norovirus = assay: Efficacy of Compound 1 Against Human Norovirus (viral titer); assay type: cell-based; conditions: cells pretreated with 25 μM compound for two hours; duplicate (FIGS. 4-6)
Procedure: The efficacy of compound 1 for inhibiting norovirus was compared to DMSO (as a control), compound 2, and 2′-C-methylcytidine triphosphate (2′CmeC TP). Cells were pretreated with 25 μM of experimental compound for two hours. Virus inoculum was added for two hours, and unbound virus washed off and fresh media and fresh experimental compound was added.

RAW cells = assay: Conversion of Compound 1 to Triphosphate in RAW Cells; conditions: for (Compound 1-TP)/(Compound 1) (ng): ratio by ng; for (Compound 1-TP)/(Compound 1) (pmol): ratio by pmol
[2] = RAW cells incubated with 0.5 μM Compound 1 for 48 hours
[3] = RAW cells incubated with 1 μM Compound 1 for 48 hours
[4] = RAW cells incubated with 5 μM Compound 1 for 48 hours
[5] = RAW cells incubated with 10 μM Compound 1 for 48 hours
[6] = murine norovirus, Table 8, N/A = assayed but no EC50 value could be measured

Compound: C[C@@]1(O)[C@H](O)[C@@H](CO)O[C@H]1n1ccc(N)nc1=O [2′-C-Methyl Cytidine, reference compound]
CC50 [1]: 34.3 µM
EC50 (mouse norovirus; Norovirus, in Mus musculus, read-out: MNV Mean EC50, RAW cells): 3.2 µM

Compound: C[C@@]1(O)[C@H](O)[C@@H](COP(=O)(O)OP(=O)(O)OP(=O)(O)O)O[C@H]1n1ccc(N)nc1=O [2′CmeC TP, 2′-C-methylcytidine triphosphate, reference compound]
viral titer (human norovirus): increased almost two orders of magnitude

Compound: Cc1nc(N)c2c(C(N)=O)cn([C@@H]3O[C@H](COP(=O)(O)OP(=O)(O)OP(=O)(O)O)[C@@H](O)[C@H]3O)c2n1 [Compound 1-TP]
Concentration (ng/1 × 10^6 cells) (RAW cells; [2]): 3.74 ng/1 × 10^6 cells
Concentration (pmol/1 × 10^6 cells) (RAW cells; [2]): 6.37 pmol/1 × 10^6 cells
Concentration (ng/1 × 10^6 cells) (RAW cells; [3]): 5.13 ng/1 × 10^6 cells
Concentration (pmol/1 × 10^6 cells) (RAW cells; [3]): 8.74 pmol/1 × 10^6 cells
Concentration (ng/1 × 10^6 cells) (RAW cells; [4]): 26.77 ng/1 × 10^6 cells
Concentration (pmol/1 × 10^6 cells) (RAW cells; [4]): 45.61 pmol/1 × 10^6 cells
Concentration (ng/1 × 10^6 cells) (RAW cells; [5]): 41.78 ng/1 × 10^6 cells
Concentration (pmol/1 × 10^6 cells) (RAW cells; [5]): 71.18 pmol/1 × 10^6 cells
(Compound 1-TP)/(Compound 1) (ng) (RAW cells; 0.5 μM Compound 1, 48 hours): 21.8
(Compound 1-TP)/(Compound 1) (ng) (RAW cells; 1 μM Compound 1, 48 hours): 39.4
(Compound 1-TP)/(Compound 1) (ng) (RAW cells; 5 μM Compound 1, 48 hours): 41.3
(Compound 1-TP)/(Compound 1) (ng) (RAW cells; 10 μM Compound 1, 48 hours): 41.1
(Compound 1-TP)/(Compound 1) (pmol) (RAW cells; 0.5 μM Compound 1, 48 hours): 12.0
(Compound 1-TP)/(Compound 1) (pmol) (RAW cells; 1 μM Compound 1, 48 hours): 21.7
(Compound 1-TP)/(Compound 1) (pmol) (RAW cells; 5 μM Compound 1, 48 hours): 22.7
(Compound 1-TP)/(Compound 1) (pmol) (RAW cells; 10 μM Compound 1, 48 hours): 22.6

EC50 (mouse norovirus; [6]): > 100 µM
Compound: CCOP(=O)(CC[C@H]1O[C@@H](n2cc(C(N)=O)c3c(N)nc(C)nc32)[C@H](O)[C@@H]1O)OCC [Compound 119]

EC50 (mouse norovirus; [6]): > 100 µM
Compound: Cc1nc(Cl)c2ccn([C@H]3CC=CO3)c2n1 [Compound 120]

EC50 (mouse norovirus; [6]): > 100 µM
Compound: CCOP(=O)(CCO[C@H]1O[C@@H](n2cc(C#N)c3c(Cl)nc(C)nc32)[C@H](O)[C@@H]1O)OCC [Compound 123]

Compound: Cc1nc(N)c2c(C(N)=O)cn([C@H]3C=C[C@@H](O)O3)c2n1 [Compound 124]
EC50 (mouse norovirus; [6]): > 100 µM

EC50 (mouse norovirus; [6]): > 100 µM
Compound: Cc1nc(N)c2c(C(N)=O)cn([C@@H]3O[C@H](OCCP(=O)(O)O)[C@@H](O)[C@H]3O)c2n1 [Compound 125]

Compound: Cc1nc(N)c2c(C(N)=O)cn([C@@H]3O[C@H](COP(=O)(N[C@@H](C)C(=O)OCc4ccccc4)N[C@H](C)C(=O)OCc4ccccc4)[C@@H](O)[C@H]3O)c2n1 [Compound 126]
EC50 (mouse norovirus; murine norovirus, Table 7): 33.6 µM and 38.9 µM

Compound: Cc1nc(/N=C/N(C)C)c2c(C(N)=O)cn([C@@H]3O[C@H](CO)[C@@H](O)[C@H]3O)c2n1 [Compound 127]
EC50 (mouse norovirus; [6]): 5.5 µM

EC50 (mouse norovirus; [6]): > 100 µM
Compound: CC(=O)Nc1nc(C)nc2c1c(C(N)=O)cn2[C@@H]1O[C@H](COC(C)=O)[C@@H](OC(C)=O)[C@H]1OC(C)=O [Compound 128]

Compound: CC(=O)OC[C@H]1O[C@@H](n2cc(C(N)=O)c3c(N)nc(C)nc32)[C@H](OC(C)=O)[C@@H]1OC(C)=O [Compound 129]
EC50 (mouse norovirus; [6]): 88.7 µM

Compound: CCCCCCCCCCCCCCCCOCCCC(=O)Nc1nc(C)nc2c1c(C(N)=O)cn2[C@@H]1O[C@H](CO)[C@@H](O)[C@H]1O [Compound 130]
EC50 (mouse norovirus; [6]): 42.7 µM

EC50 (mouse norovirus; [6]): > 100 µM
Compound: CCCC(CCC)C(=O)Nc1nc(C)nc2c1c(C(N)=O)cn2[C@@H]1O[C@H](CO)[C@@H](O)[C@H]1O [Compound 131]

EC50 (mouse norovirus; [6]): > 100 µM
Compound: Cc1nc(N)c2c(C(N)=O)cn([C@@H]3O[C@H](COP(=O)(N[C@@H](C)C(=O)OC(C)C)Oc4ccccc4)[C@@H](O)[C@H]3O)c2n1 (stereo partly drawn) [Compound 132]

Compound: Cc1nc(N)c2c(C(N)=O)cn([C@@H]3O[C@H](COP(=O)(N[C@@H](C)C(=O)OC(C)C)Oc4ccccc4)[C@@H](OC(=O)C(C)C)[C@H]3OC(=O)C(C)C)c2n1 (stereo partly drawn) [Compound 133]
EC50 (mouse norovirus; murine norovirus, Table 7): 25.7 µM

Compound: Cc1nc(N)c2c(C(N)=O)cn([C@@H]3O[C@H](COP(=O)(N[C@@H](C)C(=O)OC(C)C)Oc4ccccc4)[C@H]4OC(=O)O[C@H]43)c2n1 (stereo partly drawn) [Compound 134]
EC50 (mouse norovirus; [6]): 68.4 µM

Compound: Cc1nc(N)c2c(C(N)=O)cn([C@@H]3O[C@H](COP(=O)(NCc4ccccc4)NCc4ccccc4)[C@@H](O)[C@H]3O)c2n1 [Compound 136]
EC50 (mouse norovirus; [6]): 64.5 µM

Compound: Cc1nc(N)c2c(C(N)=O)cn([C@@H]3O[C@H](COP(=O)(N[C@@H](C)C(=O)OC(C)C)OCc4ccccc4C)[C@@H](O)[C@H]3O)c2n1 (stereo partly drawn) [Compound 137]
EC50 (mouse norovirus; murine norovirus, Table 7): 20 µM

Compound: CCCCCCCCCCCCCCCCOCCCOC(=O)[C@H](C)NP(=O)(OC[C@H]1O[C@@H](n2cc(C(N)=O)c3c(N)nc(C)nc32)[C@H](O)[C@@H]1O)Oc1ccccc1 (stereo partly drawn) [Compound 139]
EC50 (mouse norovirus; murine norovirus, Table 7): 2.3 µM

EC50 (mouse norovirus; [6]): > 100 µM
Compound: CCCCCCCCCCCCCCCCOCCCOP(=O)(N[C@@H](C)C(=O)OC(C)C)OC[C@H]1O[C@@H](n2cc(C(N)=O)c3c(N)nc(C)nc32)[C@H](O)[C@@H]1O (stereo partly drawn) [Compound 140]

Compound: Cc1nc(N)c2c(C(N)=O)cn([C@@H]3O[C@H](COP(=O)(O)N[C@@H](C)C(=O)OC(C)C)[C@@H](O)[C@H]3O)c2n1 [Compound 141]
EC50 (mouse norovirus; murine norovirus, Table 7): 3.2 µM

EC50 (mouse norovirus; [6]): > 100 µM
Compound: CCCCCCCCCCCCCCCOCCCOC(=O)C(C)NP(=O)(OCc1ccccc1C)OC[C@H]1O[C@@H](n2cc(C(N)=O)c3c(N)nc(C)nc32)[C@H](O)[C@@H]1O (stereo partly drawn) [Compound 142]

Compound: CCCCCCCCCCCCCCCCOCCCOC(=O)[C@H](C)NP(=O)(O)OC[C@H]1O[C@@H](n2cc(C(N)=O)c3c(N)nc(C)nc32)[C@H](O)[C@@H]1O [Compound 143]
EC50 (mouse norovirus; murine norovirus, Table 7): 26.3 µM

Compound: C=Cc1c(C(N)=O)c2c(N)nc(C)nc2n1[C@@H]1O[C@H](CO)[C@@H](O)[C@H]1O [Compound 144]
EC50 (mouse norovirus; [6]): > 100 µM

Compound: CCCCCCCCC(=O)Oc1ccc(COP(=O)(OCc2ccc(OC(=O)CCCCCCCC)cc2)OP(=O)(O)OC[C@H]2O[C@@H](n3cc(C(N)=O)c4c(N)nc(C)nc43)[C@H](O)[C@@H]2O)cc1 [Compound 145]
EC50 (mouse norovirus; murine norovirus, Table 7): 7.4 µM
